Data published in patent EP4140481A1, “PROTEIN-OLIGOMER BINDING AGENTS AND THERAPEUTIC USES THEREOF” (Galyan Bio, Inc., priority 2021, dated 2023).

How the values were obtained:
[1] = target: T1, mHTT (Homo sapiens, UniProt P42858); test: mHTT levels in striatal cells (immunocytochemistry); type: cell-based, mouse; settings: for remaining activity at 10 µM / mHTT after treatment / Nuclear mHTT after treatment: 3 hours heat shock, 48 hours treatment; for remaining activity at 10 µM / mHTT after treatment: percentage in comparison to untreated STHdh 111/111, 3B5H10 antibody, 10 µM; for remaining activity at 10 µM: read-out: mHTT after treatment
T1 construct: host or cells: ST HDH Q111/111 mouse striatal cell line (knock-in locus)
T1 sequence (P42858 with tags, fused parts or gaps with the stated changes): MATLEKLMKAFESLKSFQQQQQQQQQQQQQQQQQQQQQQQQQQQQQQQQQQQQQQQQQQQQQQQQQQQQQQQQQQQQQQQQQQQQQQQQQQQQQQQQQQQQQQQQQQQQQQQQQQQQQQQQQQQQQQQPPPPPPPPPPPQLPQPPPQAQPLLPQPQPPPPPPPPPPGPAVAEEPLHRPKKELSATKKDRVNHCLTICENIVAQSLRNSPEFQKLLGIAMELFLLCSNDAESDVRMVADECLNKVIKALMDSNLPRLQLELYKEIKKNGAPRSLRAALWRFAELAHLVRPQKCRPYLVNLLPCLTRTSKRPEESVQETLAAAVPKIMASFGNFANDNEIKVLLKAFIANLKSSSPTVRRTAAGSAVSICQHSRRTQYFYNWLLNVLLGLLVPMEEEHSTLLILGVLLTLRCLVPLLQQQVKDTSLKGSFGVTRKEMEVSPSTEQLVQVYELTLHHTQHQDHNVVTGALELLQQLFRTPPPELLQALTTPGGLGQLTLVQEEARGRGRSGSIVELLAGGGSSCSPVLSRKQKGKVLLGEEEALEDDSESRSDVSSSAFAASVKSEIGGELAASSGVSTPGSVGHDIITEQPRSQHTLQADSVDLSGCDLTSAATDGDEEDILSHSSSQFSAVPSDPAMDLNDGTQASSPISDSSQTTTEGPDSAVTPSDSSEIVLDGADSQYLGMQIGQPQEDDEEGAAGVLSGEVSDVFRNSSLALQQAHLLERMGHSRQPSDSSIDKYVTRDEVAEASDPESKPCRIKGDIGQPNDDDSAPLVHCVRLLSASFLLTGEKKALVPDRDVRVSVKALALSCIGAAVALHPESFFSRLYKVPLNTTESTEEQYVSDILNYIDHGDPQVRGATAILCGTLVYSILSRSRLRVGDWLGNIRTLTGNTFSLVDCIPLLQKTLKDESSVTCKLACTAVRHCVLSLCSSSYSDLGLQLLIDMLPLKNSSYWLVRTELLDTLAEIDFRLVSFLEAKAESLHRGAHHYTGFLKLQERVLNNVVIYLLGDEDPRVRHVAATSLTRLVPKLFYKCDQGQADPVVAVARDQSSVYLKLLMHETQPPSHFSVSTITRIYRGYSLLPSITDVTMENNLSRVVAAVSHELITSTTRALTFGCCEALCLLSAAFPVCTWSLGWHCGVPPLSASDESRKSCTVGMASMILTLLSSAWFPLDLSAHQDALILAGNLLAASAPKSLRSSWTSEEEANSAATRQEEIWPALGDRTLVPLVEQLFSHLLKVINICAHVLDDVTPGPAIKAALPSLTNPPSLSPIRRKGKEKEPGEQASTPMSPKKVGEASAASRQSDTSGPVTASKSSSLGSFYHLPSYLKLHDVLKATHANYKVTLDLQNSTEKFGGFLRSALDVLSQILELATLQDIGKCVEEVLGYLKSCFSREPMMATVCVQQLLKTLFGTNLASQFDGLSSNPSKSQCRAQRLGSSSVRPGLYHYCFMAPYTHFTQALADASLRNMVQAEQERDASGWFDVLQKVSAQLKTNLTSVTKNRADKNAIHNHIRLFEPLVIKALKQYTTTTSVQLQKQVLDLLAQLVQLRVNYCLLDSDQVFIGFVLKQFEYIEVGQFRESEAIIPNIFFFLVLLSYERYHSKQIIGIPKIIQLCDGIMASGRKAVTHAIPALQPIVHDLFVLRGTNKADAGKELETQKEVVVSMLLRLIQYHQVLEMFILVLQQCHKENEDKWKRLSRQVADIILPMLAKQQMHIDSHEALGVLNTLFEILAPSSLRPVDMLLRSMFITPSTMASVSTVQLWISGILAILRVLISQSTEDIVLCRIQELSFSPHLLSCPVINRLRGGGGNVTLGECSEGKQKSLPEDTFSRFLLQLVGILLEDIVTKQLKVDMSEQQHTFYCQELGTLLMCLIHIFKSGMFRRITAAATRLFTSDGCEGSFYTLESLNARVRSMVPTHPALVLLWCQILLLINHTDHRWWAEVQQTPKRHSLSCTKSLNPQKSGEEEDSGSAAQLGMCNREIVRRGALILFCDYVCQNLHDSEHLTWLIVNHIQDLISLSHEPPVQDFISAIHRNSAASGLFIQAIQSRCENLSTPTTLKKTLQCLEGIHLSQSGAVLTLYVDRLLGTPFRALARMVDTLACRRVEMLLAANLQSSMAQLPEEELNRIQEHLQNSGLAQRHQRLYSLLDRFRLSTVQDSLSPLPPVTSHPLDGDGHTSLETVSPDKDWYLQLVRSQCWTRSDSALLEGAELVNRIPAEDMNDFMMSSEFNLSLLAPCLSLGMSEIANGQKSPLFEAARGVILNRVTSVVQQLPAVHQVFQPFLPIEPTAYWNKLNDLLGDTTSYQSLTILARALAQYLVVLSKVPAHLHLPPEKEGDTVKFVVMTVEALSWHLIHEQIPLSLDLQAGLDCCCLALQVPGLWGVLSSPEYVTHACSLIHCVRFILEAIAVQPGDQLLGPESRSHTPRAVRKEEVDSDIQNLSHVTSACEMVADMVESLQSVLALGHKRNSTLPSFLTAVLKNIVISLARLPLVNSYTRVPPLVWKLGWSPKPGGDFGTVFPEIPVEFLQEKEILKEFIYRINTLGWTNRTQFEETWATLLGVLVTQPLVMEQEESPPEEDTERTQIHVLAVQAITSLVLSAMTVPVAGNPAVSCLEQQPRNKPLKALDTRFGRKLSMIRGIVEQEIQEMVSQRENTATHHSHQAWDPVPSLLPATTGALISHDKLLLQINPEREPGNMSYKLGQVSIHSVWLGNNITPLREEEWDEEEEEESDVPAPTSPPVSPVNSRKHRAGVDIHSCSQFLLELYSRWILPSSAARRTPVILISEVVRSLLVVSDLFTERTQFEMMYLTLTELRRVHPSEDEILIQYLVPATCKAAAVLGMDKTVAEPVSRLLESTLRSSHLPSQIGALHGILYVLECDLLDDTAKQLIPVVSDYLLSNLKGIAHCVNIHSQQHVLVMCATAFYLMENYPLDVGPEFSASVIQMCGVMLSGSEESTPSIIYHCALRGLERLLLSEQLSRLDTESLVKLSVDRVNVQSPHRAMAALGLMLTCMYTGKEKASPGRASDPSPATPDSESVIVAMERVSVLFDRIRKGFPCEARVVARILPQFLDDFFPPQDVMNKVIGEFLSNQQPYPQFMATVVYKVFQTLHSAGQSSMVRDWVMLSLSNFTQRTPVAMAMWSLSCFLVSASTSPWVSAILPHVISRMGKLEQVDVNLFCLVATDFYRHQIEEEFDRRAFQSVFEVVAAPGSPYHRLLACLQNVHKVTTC
Experimental: (§1) Staining - Cells were permeabilized with 0.3% Triton X-100 in 4 °C PBS (pH 7.4 from ThermoFisher) for 10 minutes. Then the cells were washed two times with 4 °C PBS. Subsequently, cells are blocked with 3% NGS (normal goat serum from Thermo Fisher) in 4 ° C PBS for 1 hour. Cells were incubated with primary antibodies in blocking buffer (PBS, 3% NGS, 0.02% NaN3) over night at 4 °C. Primary antibodies were mouse antipolyglutamine monoclonal antibody 3B5H10 (Sigma-Aldrich) at 1:250 dilution and Guinea Pig anti-MAP2 polyclonal antibody (Synaptic Systems) at 1:500 dilution. 3B5H10 binds to diffuse mHTT. Diffuse mHTT is a monomeric and small oligomeric mHTT. Diffuse mHTT is correlated to pathological parameters in Huntington's disease. Compounds that bind the mHTT will reduce the levels of diffuse mHTT detected.
Cells were washed 2 times with 4 °C PBS, and then incubated with secondary antibodies at 1:2000 dilution in blocking buffer for 1hour at room temperature. […] Cells were washed 2 times with 4 °C PBS, and then the nuclei were counterstain with DAPI (ThermoFisher) for 10 min at room temperature in the dark. Cells were washed 2 times with 4 °C PBS, and then 4 °C PBS was added to cells and then images were acquired. […] Table 11: Antibodies Used in Immunocytochemistry Studies
Fluorescence Imaging - Imaging sessions were performed on a confocal microscope system (Carl Zeiss Microscopy) equipped with a dual spinning disk unit (Yokogawa). All components of the imaging system were controlled via the ZEN 2 software suite (Carl Zeiss Microscopy). The laser lines used were 405 nm, 488 nm and 639 nm to excite DAPI or the respective fluorophores. […] Nested t test was performed to calculate the significance amongst repeated measurements using GraphPad Prism software.
as §1, with “For LC3 staining primary antibodies were mouse anti-LC3 mab (5F10) (nanoTools) at 1:500 dilution” for “3B5H10 binds to diffuse mHTT. Diffuse mHTT is a monomeric”, “Guinea Pig anti-MAP2 polyclonal antibody (Synaptic Systems) at 1:500 dilution.” for “small oligomeric mHTT. Diffuse mHTT is correlated to pathological parameters in Huntington's disease. Compounds that bind the mHTT will reduce the levels of diffuse mHTT detected.”
Cells were washed 2 times with 4 °C PBS, and then incubated with secondary antibodies at 1:2000 dilution in blocking buffer for 1hour at room temperature. […] Cells were washed 2 times with 4 °C PBS, and then the nuclei were counterstain with DAPI (ThermoFisher) for 10 min at room temperature in the dark. Cells were washed 2 times with 4 °C PBS, and then 4 °C PBS was added to cells and then images were acquired.
EC 50 value was determined with non-linear regression.

[2] = target: Exon1 Q46 (Homo sapiens, UniProt P42858, INS38QQQQQQQQQQQQQQQQQQQQQQQQQ); test: Circular dichroism study; type: binding; settings: Exon1 Q46
Exon1 Q46, sequence (P42858 with tags, fused parts or gaps with the stated changes): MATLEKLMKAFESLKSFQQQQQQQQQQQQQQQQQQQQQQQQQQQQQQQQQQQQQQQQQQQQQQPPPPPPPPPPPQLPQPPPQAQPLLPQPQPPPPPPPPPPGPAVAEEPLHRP
Experimental: Protein samples were diluted with buffer to 7.5 µM prior to Circular Dichroism (CD) measurements. Measurements were conducted at room temperature.
Four spectra at each measurement were taken every 1 nm from 200 to 260 nm, scanning at 50 nm/min with an averaging time of 1 sec. Spectra were obtained from samples in 20 mM phosphate, pH 7.4. Ten scans were averaged for each sample spectrum
Single-wavelength readings at 222 nm were obtained. After subtraction of the Trx contribution, the α-helical content of Httex1 was estimated from its mean residue ellipticity (MREHttex1) at 222 nm. This calculation was conducted as described by Bravo-Arredondo (Bravo-Arredondo, J.M. et al., J Biol Chem. 2018 Dec 21;293(51):19613-19623).
MRE Exon-1 Q16 and Q46 (Mean Residue Ellipticity) was measured every 1 sec for 300 sec; the 301 readings for each sample were averaged and MRE Trx subtracted. The number of amino acids in each sample to experience a change in helicity was estimated using a previously developed helix-coil transition model, which gave the change in fraction of helicity (ΔfHelix) by the following equation: fHelix = (MREHttex1 −MRECoil)/(MREHelix −MRECoil) [formula] where MRE Exon1 Q26 or Q46 (MREHttex1 in the formula) describes the helix-coil transition, obtained from the difference between MRE Eon1 Q26 or Q46 at 222 nm of the fusion protein at the given temperature (in our case 37 °C) and the product of MRE Trx at 222 nm at the same temperature and the fraction of residues comprised by Trx in that particular construct, and MRECoil = 2220−53T,MREHelix =; (−44,000+250T)(1−(3)/(Nr)) [formula] given T as the temperature in °C and Nr as the number of residues.
In order to calculate an equilibrium of the two states model, percent α-helicity was calculated using the relation of MREHttex1 = 0 and -34700 (deg cm^2 dmol^-1) for 0% and 100% helicity, respectively. Table 14: Comparison between Kd, reversal of conformational changes of Exon1 Q46 and reduction of mHTT in comparison to untreated striatal neurons
The CD measurements protocol for Compound 101 was the same as outlined above except that from 206 nm - 210 nm and 220 nm - 224 nm, the step size was 0.2 nm, and the bandwidth was 1nm.

Row | SMILES | remaining activity at 10 µM ([1]; STHdh 111/111) | further results
1 | Cc1[nH]c2ccc(C(=O)NCCN3CCOCC3)cc2c1C [Compound 2, 2,3-dimethyl-N-(2-morpholinoethyl)-1H-indole-5-carboxamide] | 32% | 
2 | CN(C)CCNC(=O)c1ccc2[nH]c3c(c2c1)CCC3 [Compound 5] | 36% | 
3 | O=C(NCCN1CCOCC1)c1ccc2[nH]c3c(c2c1)CCC3 [Compound 8] | 38% | 
4 | O=C(NCCN1CCOCC1)c1ccc2[nH]c3c(c2c1)CCCC3 [Compound 12] | 40% | 
5 | CCc1c(C)[nH]c2ccc(C(=O)NCCN3CCN(C)CC3)cc12 [Compound 15] | 42% | 
6 | O=C(NCCN1CCCCC1)c1ccc2[nH]c3c(c2c1)CCCC3 [Compound 16] | 43% | 
7 | Cc1[nH]c2ccc(C(=O)NCCN3CCC3)cc2c1C [Compound 17, N-(2-(Azetidin-1-yl)ethyl)-2,3-dimethyl-1H-indole-5-carboxamide] | 44% | 
8 | CCN(CC)CCNC(=O)c1ccc2c(c1)c(C)c(C)n2C [Compound 19, N-(2-(Diethylamino)ethyl)-1,2,3-dimethyl-1H-indole-5-carboxamide] |  | mHTT after treatment ([1]; STHdh 111/111): 45%
9 | O=C(NCCN1CCC1)c1ccc2[nH]c3c(c2c1)CCCC3 [Compound 20] | 45% | mHTT reduction with MG132 in comparison to without MG132 ([1]; STHdh 111/111 striatal cells): less
10 | CCN(CC)CCNC(=O)c1ccc2[nH]c(C)c(C)c2c1 [Compound 21, N-(2-(Diethylamino)ethyl)-2,3-dimethyl-1H-indole-5-carboxamide] | 46% | 
11 | CCc1[nH]c2ccc(C(=O)NCCN3CCCCC3)cc2c1C [Compound 23] | 47% | 
12 | Cc1c(C)n(C)c2ccc(C(=O)NCCN3CCN(C)C(C)C3)cc12 (centres unmarked) [Compound 25, N-(2-(3,4-Dimethylpiperazin-1-yl)ethyl)-1,2,3-trimethyl-1H-indole-5-carboxamide] | 48% | 
13 | CCN(CC)CCNC(=O)c1ccc2[nH]c3c(c2c1)CCC3 [Compound 27] | 50% | 
14 | Cc1[nH]c2ccc(C(=O)NCCN3CCCC3)cc2c1C [Compound 29, 2,3-Dimethyl-N-(2-(pyrrolidin-1-yl)ethyl)-1H-indole-5-carboxamide] | 51% | 
15 | Cc1c(C)n(C)c2ccc(C(=O)NCCN3CCCCC3)cc12 [Compound 31, 1,2,3-Trimethyl-N-(2-(piperidin-1-yl)ethyl)-1H-indole-5-carboxamide] | 52% | 
16 | CCc1[nH]c2ccc(C(=O)NCCN(C)C)cc2c1C [Compound 37] | 56% | 
17 | CCc1[nH]c2ccc(C(=O)NCCN(CC)CC)cc2c1C [Compound 38] | 57% | 
18 | Cc1c(C)n(C)c2ccc(C(=O)NCCN(C)C)cc12 [Compound 41, N-(2-(Dimethylamino)ethyl)-1,2,3-trimethyl-1H-indole-5-carboxamide] | 65% | 
19 | O=C(NCCN1CCC1)c1ccc2[nH]c3c(c2c1)CCC3 [Compound 42] | 65% | 
20 | CC(C)N(CCNC(=O)c1ccc2[nH]ccc2c1)C(C)C [Compound 43] | 65% | 
21 | Cc1c(C)n(C)c2ccc(C(=O)NCCN3CCC3)cc12 [Compound 44, N-(2-(Azetidin-1-yl)ethyl)-1,2,3-dimethyl-1H-indole-5-carboxamide] |  | mHTT after treatment ([1]; STHdh 111/111): 66%
22 | Cc1c(C)n(C)c2ccc(C(=O)NCCN3CCCC3)cc12 [Compound 46, 1,2,3-Trimethyl-N-(2-(pyrrolidin-1-yl)ethyl)-1H-indole-5-carboxamide] | 66% | 
23 | Cc1[nH]c2ccc(C(=O)NCCN3CCCCC3)cc2c1C [Compound 47, 2,3-Dimethyl-N-(2-(piperidin-1-yl)ethyl)-1H-indole-5-carboxamide] | 66% | 
24 | Cc1[nH]c2ccc(C(=O)NC3CCC(N(C)C)CC3)cc2c1C (centres unmarked) [Compound 101, N-(4-(dimethylamino)cyclohexyl)-2,3-dimethyl-1H-indole-5-carboxamide] | 38% | Kd [2]: 70 nM; Fraction Helix fH ([2]; conc. Compound 0.01 µM): 20.5%; Fraction Helix fH ([2]; conc. Compound 0.059 µM): 20.1%; Fraction Helix fH ([2]; conc. Compound 0.158 µM): 19.9%; Fraction Helix fH ([2]; conc. Compound 0.647 µM): 19.1%; Fraction Helix fH ([2]; conc. Compound 1.62 µM): 19.0%; Fraction Helix fH ([2]; conc. Compound 4.04 µM): 18.5%; Fraction Helix fH ([2]; conc. Compound 13.68 µM): 18.7%; Fraction Helix fH ([2]; conc. Compound 37.77 µM): 18.2%; mHTT after 3 h heat shock and following 48 hours of compound treatment in comparison to untreated STHdh 111/111 ([1]; STHdh 111/111): 38%
25 | Cc1[nH]c2ccc(S(=O)(=O)NCCN3CCOCC3)cc2c1C [Compound 127] |  | Nuclear mHTT after treatment ([1]; STHdh 111/111): 23.9%
26 | Cc1[nH]c2ccc(S(=O)(=O)NCCN3CCCCC3)cc2c1C [Compound 128] |  | Nuclear mHTT after treatment ([1]; STHdh 111/111): 79.9%

Second part, led by results:

Row | remaining activity at 10 µM ([1]; STHdh 111/111) | SMILES | further results
27 | 30% | CCc1c(C)[nH]c2ccc(C(=O)NCCN(C)C)cc12 [Compound 1] | 
28 | 33% | CN(C)CCNC(=O)c1ccc2[nH]c3c(c2c1)CCCC3 [Compound 3] | 
29 | 40% | CN1CCN(CCNC(=O)c2ccc3[nH]c4c(c3c2)CCC4)CC1 [Compound 10] | 
30 | 40% | CCc1[nH]c2ccc(C(=O)NCCN3CCCC3)cc2c1C [Compound 11] | 
31 | 41% | O=C(NCCN1CCCC1)c1ccc2[nH]c3c(c2c1)CCCC3 [Compound 13] | 
32 | 51% | CCc1[nH]c2ccc(C(=O)NCCN3CCOCC3)cc2c1C [Compound 30] | 
33 | 53% | CCc1c(C)[nH]c2ccc(C(=O)NCCN3CCOCC3)cc12 [Compound 32] | 
34 | 55% | CCc1c(C)[nH]c2ccc(C(=O)NCCN3CCC3)cc12 [Compound 33] | 
35 | 56% | CN1CCN(CCNC(=O)c2ccc3[nH]c4c(c3c2)CCCC4)CC1 [Compound 36] | 
36 | 68% | Cc1c(C)n(C)c2ccc(C(=O)NCCN3CCCCC3C)cc12 (centres unmarked) [Compound 48] | 
